According to US11787762B2, “Tetralin and tetrahydroquinoline compounds as inhibitors of HIF-2alpha” (ARCUS BIOSCIENCES, INC., priority 2020, dated 2023):

Molecular target: T1, HIF-2α (Homo sapiens, UniProt Q99814)
T1 construct: host or cells: 786-O cells stably transduced with Cignal Lenti HIF Luc Reporter (only the reporter was introduced, not HIF-2α)
Assay: HIF-2α luciferase reporter assay in HIF-Luc-786-O cells
Format: cell-based
Description: Generation of HIF-2α Luciferase 786-O Cell Line:
Stable cell lines were generated by transducing 786-O cells (ATCC, CRL-1932) with Cignal Lenti HIF Luc Reporter lentivirus (CLS-007 L, Qiagen) according to the manufacturer's guidelines. In brief, 0.3×10^6 786-0 cells were transduced with lentivirus at a Multiplicity of Infection (MOI) of 25 for 24 hours. After transduction, cells were replenished with fresh RPMI 1640 Medium (Cat. No. 11875085, Thermo Fisher,) supplemented with 10% FBS (Cat. No. A3160502, Gibco), 2 mM GlutaMax (Cat. No. 35050-061, Invitrogen) and 100 units of penicillin and 100 μg of streptomycin/mL (Cat. No 15070063, Thermo Fisher) for another 24 hours. Antibiotic selection was performed in cell media containing 4 μg/mL of Puromycin. After 7 days of antibiotic selection, stable pools of surviving cells were expanded and used in a luciferase reporter assay.
HIF-2α Luciferase Reporter Assay:
On day one, 20 uL of HIF-Luc-786-0 cells in OptiMem (Cat. No. 31985088, Thermo Fisher) were seeded into each well of a 384 well white opaque plate (Corning 3570) and incubated at 37° C. and 5% CO2. Twenty microliters of 2× test compounds in OptiMem were added to cells after 4 hours of incubation. Final assay conditions comprised 20,000 cells per well in 1% DMSO with test compound concentrations ranging from 50 uM to 0 uM. After 20 hours incubation at 37° C. and 5% CO2, luciferase activity was determined using ONE-Glo Luciferase Assay Reagent (E6110, Promega) following the manufacture's recommended procedure. Briefly, 40 uL of ONE-Glo luciferase reagents were added to each well and luciferase signals were measured using an Envision 2102 Multilabel Reader. Percentage maximum activity in each test well was calculated based on DMSO (maximum activity) and no cell control wells (baseline activity). The IC50 values of the test compounds were determined from compound dose response curves fitted using a standard four parameter fit equation.

T1 sequence (Q99814 whole entry): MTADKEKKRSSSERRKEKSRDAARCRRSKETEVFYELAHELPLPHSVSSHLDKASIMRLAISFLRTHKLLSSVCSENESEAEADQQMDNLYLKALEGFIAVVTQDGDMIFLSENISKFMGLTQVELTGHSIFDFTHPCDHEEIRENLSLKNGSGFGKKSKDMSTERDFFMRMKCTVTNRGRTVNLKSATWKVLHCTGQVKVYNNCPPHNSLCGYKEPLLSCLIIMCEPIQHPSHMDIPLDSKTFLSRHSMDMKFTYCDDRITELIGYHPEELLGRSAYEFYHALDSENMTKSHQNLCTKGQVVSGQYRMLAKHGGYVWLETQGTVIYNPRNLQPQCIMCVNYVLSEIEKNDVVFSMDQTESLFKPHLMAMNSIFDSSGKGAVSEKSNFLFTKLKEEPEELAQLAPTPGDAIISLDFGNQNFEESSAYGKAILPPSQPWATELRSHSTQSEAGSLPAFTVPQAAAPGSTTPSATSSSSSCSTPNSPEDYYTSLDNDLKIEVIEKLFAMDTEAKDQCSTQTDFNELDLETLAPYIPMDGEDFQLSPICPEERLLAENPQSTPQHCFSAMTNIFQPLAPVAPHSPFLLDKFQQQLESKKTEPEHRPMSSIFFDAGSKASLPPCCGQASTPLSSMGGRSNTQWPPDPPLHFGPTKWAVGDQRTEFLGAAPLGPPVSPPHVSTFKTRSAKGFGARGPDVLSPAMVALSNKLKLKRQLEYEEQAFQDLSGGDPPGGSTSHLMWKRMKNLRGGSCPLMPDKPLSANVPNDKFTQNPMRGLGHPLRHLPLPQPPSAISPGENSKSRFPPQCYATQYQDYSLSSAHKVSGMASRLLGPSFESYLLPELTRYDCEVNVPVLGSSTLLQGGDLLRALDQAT

| IC50 (Table 3, 20 hours incubation) [nM] | IC50 (Table 1, 20 hours incubation) [nM] | Structure (SMILES) |
| --- | --- | --- |
| < 100 |  | Cc1ncoc1-c1ccc([C@H]2CC[C@H](F)c3cc(F)cc(C#N)c32)c2c1[C@H](O)C(F)(F)C2 [Example 151, (5S,8R)-8-[(1S)-2,2-difluoro-1-hydroxy-7-(4-methyl-1,3-oxazol-5-yl)-1,3-dihydroinden-4-yl]-3,5-difluoro-5,6,7,8-tetrahydronaphthalene-1-carbonitrile] |
| 100 to 1000 |  | Cc1c(-c2ccc([C@H]3CC[C@H](F)c4cc(F)cc(C#N)c43)c3c2[C@H](O)C(F)(F)C3)nnn1C [Example 183, (5S,8R)-8-[(1S)-7-(1,5-dimethyltriazol-4-yl)-2,2-difluoro-1-hydroxy-1,3-dihydroinden-4-yl]-3,5-difluoro-5,6,7,8-tetrahydronaphthalene-1-carbonitrile] |
| 100 to 1000 |  | N#Cc1cc(F)cc2c1[C@@H](c1ccc(-c3ccncc3)c3c1CC(F)(F)[C@H]3O)CC[C@@H]2F [Example 156, (5S,8R)-8-[(1S)-2,2-difluoro-1-hydroxy-7-pyridin-4-yl-1,3-dihydroinden-4-yl]-3,5-difluoro-5,6,7,8-tetrahydronaphthalene-1-carbonitrile] |
| 100 to 1000 |  | N#Cc1cc(F)cc2c1[C@@H](c1ccc(C(=O)O)c3c1CC(F)(F)[C@H]3O)CC[C@@H]2F [Example 223, (3S)-7-[(1R,4S)-8-cyano-4,6-difluoro-1,2,3,4-tetrahydronaphthalen-1-yl]-2,2-difluoro-3-hydroxy-1,3-dihydroindene-4-carboxylic acid] |
| < 100 |  | N#Cc1cc(F)cc2c1[C@@H](c1ccc(-n3ccnc3)c3c1CC(F)(F)[C@H]3O)CC[C@@H]2F [Example 199, (5S,8R)-8-[(1S)-2,2-difluoro-1-hydroxy-7-imidazol-1-yl-1,3-dihydroinden-4-yl]-3,5-difluoro-5,6,7,8-tetrahydronaphthalene-1-carbonitrile] |
| < 100 |  | N#Cc1cc(N)ncc1-c1ccc([C@H]2CC[C@H](F)c3cc(F)cc(C#N)c32)c2c1[C@H](O)C(F)(F)C2 [Example 149, 2-amino-5-[(3S)-7-[(1R,4S)-8-cyano-4,6-difluoro-1,2,3,4-tetrahydronaphthalen-1-yl]-2,2-difluoro-3-hydroxy-1,3-dihydroinden-4-yl] pyridine-4-carbonitrile] |
| < 100 |  | N#Cc1ccc(-c2c(F)cc([C@H]3CC[C@H](F)c4cc(F)cc(C#N)c43)c3c2[C@H](O)C(F)(F)C3)c(N)c1 [Example 204, (5S,8R)-8-[(1S)-7-(2-amino-4-cyanophenyl)-2,2,6-trifluoro-1-hydroxy-2,3-dihydro-1H-inden-4-yl]-3,5-difluoro-5,6,7,8-tetrahydronaphthalene-1-carbonitrile] |
| < 100 |  | N#Cc1cc(F)cc2c1[C@@H](c1ccc(C#N)c3c1CC(F)(F)[C@H]3O)CC[C@@H]2F [Example 201, (5S,8R)-8-[(1S)-7-cyano-2,2-difluoro-1-hydroxy-1,3-dihydroinden-4-yl]-3,5-difluoro-5,6,7,8-tetrahydronaphthalene-1-carbonitrile] |
|  | > 1000 | O=[N+]([O-])c1cc(S(=O)(=O)C(F)(F)F)ccc1N1CCCc2ccc(C(F)F)cc21 [Example 67] |
| 100 to 1000 |  | Cc1nc(N)sc1-c1ccc([C@H]2CC[C@H](F)c3cc(F)cc(C#N)c32)c2c1[C@H](O)C(F)(F)C2 [Example 188, (5S,8R)-8-[(1S)-7-(2-amino-4-methyl-1,3-thiazol-5-yl)-2,2-difluoro-1-hydroxy-1,3-dihydroinden-4-yl]-3,5-difluoro-5,6,7,8-tetrahydronaphthalene-1-carbonitrile] |
| < 100 |  | N#Cc1cc(F)cc2c1[C@@H](c1ccc(-c3cccc4cn[nH]c34)c3c1CC(F)(F)[C@H]3O)CC[C@@H]2F [Example 187, (5S,8R)-8-[(1S)-2,2-difluoro-1-hydroxy-7-(1H-indazol-7-yl)-1,3-dihydroinden-4-yl]-3,5-difluoro-5,6,7,8-tetrahydronaphthalene-1-carbonitrile] |
| < 100 |  | N#Cc1cc(F)cc2c1[C@@H](c1ccc(-c3cnc4c(N)cccn34)c3c1CC(F)(F)[C@H]3O)CC[C@@H]2F [Example 230, (5S,8R)-8-[(1S)-7-(8-aminoimidazo[1,2-a]pyridin-3-yl)-2,2-difluoro-1-hydroxy-1,3-dihydroinden-4-yl]-3,5-difluoro-5,6,7,8-tetrahydronaphthalene-1-carbonitrile] |
| < 100 |  | N#Cc1cc(F)cc2c1[C@@H](c1ccc(-c3cncnc3N)c3c1CC(F)(F)[C@H]3O)CC[C@@H]2F [Example 177, (5S,8R)-8-[(1S)-7-(4-aminopyrimidin-5-yl)-2,2-difluoro-1-hydroxy-1,3-dihydroinden-4-yl]-3,5-difluoro-5,6,7,8-tetrahydronaphthalene-1-carbonitrile] |
| < 100 |  | N#Cc1cc(F)cc2c1[C@@H](c1ccc(-c3cncs3)c3c1CC(F)(F)[C@H]3O)CC[C@@H]2F [Example 158, (5S,8R)-8-[(1S)-2,2-difluoro-1-hydroxy-7-(1,3-thiazol-5-yl)-1,3-dihydroinden-4-yl]-3,5-difluoro-5,6,7,8-tetrahydronaphthalene-1-carbonitrile] |
| > 1000 |  | N#Cc1cc(F)cc2c1[C@@H](c1ccc(-c3ccn[nH]3)c3c1C[C@@H](F)[C@H]3O)CC[C@@H]2F [Example 172, (5S,8R)-3,5-difluoro-8-[(1S,2R)-2-fluoro-1-hydroxy-7-(1H-pyrazol-5-yl)-2,3-dihydro-1H-inden-4-yl]-5,6,7,8-tetrahydronaphthalene-1-carbonitrile] |
| < 100 |  | Cc1c(-c2c(F)cc([C@H]3C[C@H](F)[C@H](F)c4cc(F)cc(C#N)c43)c3c2[C@H](O)C(F)(F)C3)cnn1C [Example 209, (5R,6S)-8-[(1S)-7-(1,5-dimethyl-1H-pyrazol-4-yl)-2,2,6-trifluoro-1-hydroxy-2,3-dihydro-1H-inden-4-yl]-3,5,6-trifluoro-5,6,7,8-tetrahydronaphthalene-1-carbonitrile] |
| < 100 |  | Cc1nccnc1-c1ccc([C@H]2CC[C@H](F)c3cc(F)cc(C#N)c32)c2c1[C@H](O)C(F)(F)C2 [Example 176, (5S,8R)-8-[(1S)-2,2-difluoro-1-hydroxy-7-(3-methylpyrazin-2-yl)-1,3-dihydroinden-4-yl]-3,5-difluoro-5,6,7,8-tetrahydronaphthalene-1-carbonitrile] |
| < 100 |  | N#Cc1cc(F)cc2c1[C@@H](c1ccc(-c3cccc(F)c3N)c3c1CC(F)(F)[C@H]3O)CC[C@@H]2F [Example 229, (5S,8R)-8-[(1S)-7-(2-amino-3-fluorophenyl)-2,2-difluoro-1-hydroxy-1,3-dihydroinden-4-yl]-3,5-difluoro-5,6,7,8-tetrahydronaphthalene-1-carbonitrile] |
| < 100 |  | N#Cc1cc(F)cc2c1[C@@H](c1ccc(Cl)c3c1CC(F)(F)[C@H]3O)C[C@H](F)[C@@H]2F [Example 219, (5R,6S,8R)-8-[(1S)-7-chloro-2,2-difluoro-1-hydroxy-2,3-dihydro-1H-inden-4-yl]-3,5,6-trifluoro-5,6,7,8-tetrahydronaphthalene-1-carbonitrile] |
| < 100 |  | N#Cc1cc(F)cc2c1[C@@H](c1ccc(-c3cccnc3)c3c1CC(F)(F)[C@H]3O)CC[C@@H]2F [Example 160, (5S,8R)-8-[(1S)-2,2-difluoro-1-hydroxy-7-pyridin-3-yl-1,3-dihydroinden-4-yl]-3,5-difluoro-5,6,7,8-tetrahydronaphthalene-1-carbonitrile] |
| < 100 |  | Cn1nncc1-c1ccc([C@H]2CC[C@H](F)c3cc(F)cc(C#N)c32)c2c1[C@H](O)[C@H](F)C2 [Example 175, (5S,8R)-3,5-difluoro-8-[(1S,2R)-2-fluoro-1-hydroxy-7-(3-methyltriazol-4-yl)-2,3-dihydro-1H-inden-4-yl]-5,6,7,8-tetrahydronaphthalene-1-carbonitrile] |
| < 100 |  | CS(=O)(=O)c1ccc([C@H]2CC[C@H](F)c3cc(F)cc(C#N)c32)c2c1[C@H](O)[C@@](F)(C#N)C2 [Example 247, (5S,8R)-8-[(1S,2S)-2-cyano-2-fluoro-1-hydroxy-7-methylsulfonyl-1,3-dihydroinden-4-yl]-3,5-difluoro-5,6,7,8-tetrahydronaphthalene-1-carbonitrile] |
| 100 to 1000 |  | N#Cc1cc(F)cc2c1[C@@H](c1ccc(-c3ncncc3N)c3c1CC(F)(F)[C@H]3O)CC[C@@H]2F [Example 181, (5S,8R)-8-[(1S)-7-(5-aminopyrimidin-4-yl)-2,2-difluoro-1-hydroxy-1,3-dihydroinden-4-yl]-3,5-difluoro-5,6,7,8-tetrahydronaphthalene-1-carbonitrile] |
| 100 to 1000 |  | N#Cc1cc(F)cc2c1[C@@H](c1ccc(-c3cccc4c3CC(=O)N4)c3c1CC(F)(F)[C@H]3O)CC[C@@H]2F [Example 164, (5S,8R)-8-[(1S)-2,2-difluoro-1-hydroxy-7-(2-oxo-2,3-dihydro-1H-indol-4-yl)-2,3-dihydro-1H-inden-4-yl]-3,5-difluoro-5,6,7,8-tetrahydronaphthalene-1-carbonitrile] |
